Consider eight molecules from patent publication US20110086759A1, “CHEMICAL COMPOUNDS” (SYNGENTA CROP PROTECTION, INC., priority 2007, published 2011).

Common to all, as to type: in vivo
Experiment [1] deals with Alopecurus myosuroides (ALOMY). The experiment in a line: Pre-emergence biological efficacy, glasshouse pot test. Conditions: 312 h, pre-emergence, rate 1,000 g/ha, evaluated after 13 days (100=total damage to plant; 0=no damage), read-out: Percentage damage caused to weed species, ALOMY. In a few lines: (§1)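 Seeds sown in standard soil in pots, held one day in glasshouse (24/16 °C day/night, 14 h light, 65% humidity), then sprayed with aqueous solution from acetone/water (50:50) formulation with 0.5% Tween 20 at 1000 or 250 g/ha. Damage scored after 13 days (0 = none, 100 = total).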

Experiment [2] relates to Solanum nigrum (SOLNI). Described as above. Conditions: 312 h, pre-emergence, rate 1,000 g/ha, evaluated after 13 days (100=total damage to plant; 0=no damage), read-out: Percentage damage caused to weed species, SOLNI. In a few lines: as §1
Experiment [3] deals with Echinochloa crus-galli (ECHCG). The description is as above. Particulars: 312 h, pre-emergence, rate 1,000 g/ha, evaluated after 13 days (100=total damage to plant; 0=no damage), read-out: Percentage damage caused to weed species, ECHCG. The procedure, abridged: as §1
Experiment [4] concerns Amaranthus retoflexus (AMARE). The description is as above. Particulars: Amaranthus retroflexus, 312 h; pre-emergence, rate 1,000 g/ha, evaluated after 13 days (100=total damage to plant; 0=no damage); read-out: Percentage damage caused to weed species, AMARE. In a few lines:
as §1

The test system of experiment [5] is Ipomea hederaceae (IPOHE). Described as above. Particulars: Ipomoea hederacea, 312 h; pre-emergence, rate 1,000 g/ha, evaluated after 13 days (100=total damage to plant; 0=no damage); read-out: Percentage damage caused to weed species, IPOHE. In a few lines:
as §1

Experiment [6] relates to Setaria faberi (SETFA). The experiment is described as above. Particulars: 312 h, pre-emergence, rate 1,000 g/ha, evaluated after 13 days (100=total damage to plant; 0=no damage), read-out: Percentage damage caused to weed species, SETFA. In a few lines:
as §1

For experiment [7], the system named is Alopecurus myosuroides (ALOMY). The experiment in a line: Post-emergence biological efficacy, glasshouse pot test. Conditions: 312 h, Rate 1,000 g/ha, post-emergence spray, evaluated after 13 days (100=total damage to plant; 0=no damage to plant), read-out: Percentage damage caused to weed species, post-emergence, ALOMY. The procedure, abridged:
(§2)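 Plants were sown in standard soil and grown 8 days in a glasshouse (24/16° C. day/night, 14 hours light, 65% humidity), then sprayed post-emergence at 1000 or 250 g/ha from acetone/water (50:50) with 0.5% Tween 20. Damage was scored visually after 13 days (0 = none, 100 = total).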

The test system of experiment [8] is Solanum nigrum (SOLNI). Described as above. Conditions: 312 h, Rate 1,000 g/ha, post-emergence spray, evaluated after 13 days (100=total damage to plant; 0=no damage to plant), read-out: Percentage damage caused to weed species, post-emergence, SOLNI. In a few lines:
as §2

The test system of experiment [9] is Echinochloa crus-galli (ECHCG). The experiment is described as above. Conditions: 312 h, Rate 1,000 g/ha, post-emergence spray, evaluated after 13 days (100=total damage to plant; 0=no damage to plant), read-out: Percentage damage caused to weed species, post-emergence, ECHCG. In a few lines:
as §2

Experiment [10] deals with Amaranthus retoflexus (AMARE). The description is as above. Conditions: Amaranthus retroflexus, 312 h; Rate 1,000 g/ha; post-emergence spray; evaluated after 13 days (100=total damage to plant; 0=no damage to plant); read-out: Percentage damage caused to weed species, post-emergence, AMARE. The procedure, abridged: as §2
Experiment [11] relates to Ipomea hederaceae (IPOHE). The description is as above. Conditions: Ipomoea hederacea, 312 h; Rate 1,000 g/ha; post-emergence spray; evaluated after 13 days (100=total damage to plant; 0=no damage to plant); read-out: Percentage damage caused to weed species, post-emergence, IPOHE. In a few lines: as §2
In experiment [12] the test system is Setaria faberi (SETFA). Described as above. Particulars: 312 h, Rate 1,000 g/ha, post-emergence spray, evaluated after 13 days (100=total damage to plant; 0=no damage to plant), read-out: Percentage damage caused to weed species, post-emergence, SETFA. The procedure, abridged: as §2

With `C=CCN(Cc1ccccc1F)c1nc(C2CC2)nc(C(=O)OC)c1Cl` [Compound 151-64, 5-Chloro-2-cyclo-propyl-4-[N(2-fluorophenyl)methyl-N-prop-2-enyl-amino]-6-methoxy-carbonylpyrimidine], the pest or weed control at 1000 g/ha in experiment [1] was 0%; with Solanum nigrum (SOLNI) [2] it was 0%; in experiment [3], 0%; in experiment [4] it was 30%; in [5] it was 30%; in the experiment with Setaria faberi (SETFA) [6], 0%. Moreover, the pest or weed control at 1000 g/ha turned out to be 10% in experiment [7]; 90% with Solanum nigrum (SOLNI) [8]; 40% in [9]; 100% in experiment [10]; 100% in [11]; 90% in the experiment with Setaria faberi (SETFA) [12].

Turning to `C=CCN(Cc1ccc(F)cc1)c1nc(C2CC2)nc(C(=O)OC)c1Cl` [Compound 151-66, 5-Chloro-2-cyclopropyl-4-[N-(4-fluorophenylmethyl)-N-prop-2-en-1-yl-amino]-6-methoxy-carbonylpyrimidine], the pest or weed control at 1000 g/ha in [1] worked out at 0%; in the experiment with Solanum nigrum (SOLNI) [2] it was 0%; in experiment [3] it was 0%; in [4] it was 40%; in experiment [5] it was 50%; in the experiment on Setaria faberi (SETFA) [6], 0%. Besides, the pest or weed control at 1000 g/ha in experiment [7] was 20%; with Solanum nigrum (SOLNI) [8] it was 80%; in experiment [9], 30%; in experiment [10], 80%; in experiment [11], 70%; in the experiment with Setaria faberi (SETFA) [12], 50%.

For `C=CCN(Cc1cccc(OC)c1OC)c1nc(C2CC2)nc(C(=O)OC)c1Cl` [Compound 151-109, 5-Chloro-2-cyclopropyl-4-[N-(2,3-dimethoxyphenyl-methyl)-N-prop-2-en-1-yl-amino]-6-methoxycarbonyl-pyrimidine], the pest or weed control at 1000 g/ha was found to be 0% in experiment [1]; 20% in the experiment with Solanum nigrum (SOLNI) [2]; 0% in experiment [3]; 60% in [4]; 20% in experiment [5]; 10% in the experiment with Setaria faberi (SETFA) [6]. The pest or weed control at 1000 g/ha is 0% in [7]; 30% with Solanum nigrum (SOLNI) [8]; 0% in experiment [9]; 30% in experiment [10]; 30% in experiment [11]; 0% with Setaria faberi (SETFA) [12].

For `C=CCN(Cc1cc(Cl)ccc1OC)c1nc(C2CC2)nc(C(=O)OC)c1Cl` [Compound 151-117, 5-Chloro-4-[N-(5-chloro-2-methoxyphenylmeth-yl)-N-prop-2-en-1-yl-amino]-2-cyclopropyl-6-methoxycarbonyl-pyrimidine], the pest or weed control at 1000 g/ha in experiment [1] amounted to 10%; in the experiment with Solanum nigrum (SOLNI) [2] it was 30%; in experiment [3] it was 0%; in [4], 40%; in experiment [5] it was 30%; in the experiment with Setaria faberi (SETFA) [6] it was 10%. In addition, the pest or weed control at 1000 g/ha amounted to 0% in experiment [7]; 30% with Solanum nigrum (SOLNI) [8]; 0% in [9]; 30% in experiment [10]; 60% in experiment [11]; 20% in the experiment with Setaria faberi (SETFA) [12].

For `C=CCN(Cc1cccs1)c1nc(C2CC2)nc(C(=O)OC)c1Cl` [Compound 151-140, 5-Chloro-2-cyclopropyl-6-methoxycarbonyl-4-(N-prop-2-en-1-yl-N-thiophen-2-ylmethyl-amino)-pyrimidine], the pest or weed control at 1000 g/ha in experiment [1] stood at 0%; with Solanum nigrum (SOLNI) [2], 70%; in experiment [3], 0%; in experiment [4], 100%; in experiment [5] it was 20%; in the experiment with Setaria faberi (SETFA) [6], 10%. For the same molecule, the pest or weed control at 1000 g/ha worked out at 10% in experiment [7]; 50% in the experiment with Solanum nigrum (SOLNI) [8]; 10% in experiment [9]; 60% in experiment [10]; 70% in experiment [11]; 50% in the experiment on Setaria faberi (SETFA) [12].

As for `C=CCN(Cc1ccc(Cl)s1)c1nc(C2CC2)nc(C(=O)OC)c1Cl` [Compound 151-141, 5-Chloro-4-[N-(5-chlorothiophen-2-ylmethyl)-N-prop-2-en-1-yl-amino]-2-cyclopropyl-6-methoxycarbonyl-pyrimidine], the pest or weed control at 1000 g/ha in experiment [1] turned out to be 10%; in the experiment with Solanum nigrum (SOLNI) [2], 0%; in experiment [3] it was 0%; in [4], 50%; in experiment [5], 40%; in the experiment on Setaria faberi (SETFA) [6], 0%. In addition, the pest or weed control at 1000 g/ha in [7] stood at 10%; in the experiment on Solanum nigrum (SOLNI) [8], 40%; in [9], 10%; in experiment [10], 40%; in experiment [11], 70%; in the experiment with Setaria faberi (SETFA) [12], 60%.

With `COC(=O)c1nc(C2CC2)nc(N(CC=C(C)C)Cc2ccccc2C(F)(F)F)c1Cl` [Compound 152-75, 5-Chloro-2-cyclopropyl-6-methoxycarbonyl-4-[N-(3-methylbut-2-en-1-yl)-N-(2-trifluoromethyl-phenylmethyl)-amino]pyrimidine], the pest or weed control at 1000 g/ha in [1] was determined as 20%; with Solanum nigrum (SOLNI) [2] it was 20%; in [3], 10%; in experiment [4] it was 80%; in [5], 80%; with Setaria faberi (SETFA) [6], 40%. The pest or weed control at 1000 g/ha worked out at 10% in experiment [7]; 60% in the experiment with Solanum nigrum (SOLNI) [8]; 0% in experiment [9]; 50% in [10]; 60% in experiment [11]; 10% in the experiment on Setaria faberi (SETFA) [12].

`C=CCCN(Cc1ccccc1)c1nc(C2CC2)nc(C(=O)OC)c1Cl` [Compound 154-60, 4-(N-But-3-enyl-N-phenylmethyl-amino)-5-chloro-2-cyclopropyl-6-methoxycarbonyl-pyrimidine]: the pest or weed control at 1000 g/ha in experiment [1] was determined as 0%; in the experiment with Solanum nigrum (SOLNI) [2], 0%; in experiment [3] it was 0%; in experiment [4], 40%; in [5], 0%; in the experiment on Setaria faberi (SETFA) [6], 0%. The pest or weed control at 1000 g/ha in experiment [7] stood at 20%; in the experiment with Solanum nigrum (SOLNI) [8] it was 50%; in [9], 20%; in experiment [10], 60%; in experiment [11], 80%; with Setaria faberi (SETFA) [12] it was 30%.
